pEC50, pIC50: −log10 of the molar value.

The source of these data is article PMC7933930, “Development of a small molecule that corrects misfolding and increases secretion of Z α1‐antitrypsin” (EMBO Molecular Medicine, 2021).

One data set addresses T1, Serotonin 5HT3 (Homo sapiens, UniProt P46098).
T1 sequence (P46098 24-478): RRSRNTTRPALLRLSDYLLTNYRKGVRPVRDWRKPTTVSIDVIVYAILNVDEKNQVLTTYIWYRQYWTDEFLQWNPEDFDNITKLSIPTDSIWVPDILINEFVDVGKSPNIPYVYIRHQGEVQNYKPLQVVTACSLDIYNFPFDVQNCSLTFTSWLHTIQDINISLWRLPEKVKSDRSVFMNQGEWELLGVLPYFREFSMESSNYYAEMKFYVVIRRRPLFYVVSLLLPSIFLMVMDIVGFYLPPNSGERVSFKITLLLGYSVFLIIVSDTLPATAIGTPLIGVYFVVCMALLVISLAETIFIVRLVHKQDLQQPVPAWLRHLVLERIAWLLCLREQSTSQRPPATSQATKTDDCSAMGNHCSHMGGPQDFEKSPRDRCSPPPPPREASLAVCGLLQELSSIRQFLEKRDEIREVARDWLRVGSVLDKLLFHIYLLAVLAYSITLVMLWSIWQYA
The data set can be described thus: Off‐target panel: Serotonin 5HT3 (DRX). The format is cell-based. Here is the method:
(§1) GSK716 selectivity and PK properties were profiled in order to investigate the suitability of GSK716 for progression into in vivo studies and the potential for taking it forward as a clinical candidate for testing in humans. Since GSK716 results in loss of inhibitory activity of α1‐antitrypsin, the effect of the compound was assessed on other closely related serpins. […] Furthermore, there were no off‐target effects in a panel of assays considered predictive of known safety liabilities that precluded further development of GSK716 (Table EV1).

A short description of data set [1]: Oral pharmacokinetics in dog. The conditions noted are these: beagle, whole blood, ≤ 3 mg/kg, read-out: F (oral bioavailability). Format: in vivo. Here is the method: […] Blood samples were taken into EDTA, diluted and mixed with acetonitrile containing internal standard (alprazolam) and centrifuged to precipitate proteins. Aliquots of the resultant supernatant were analysed by LC‐MS/MS, and concentrations of GSK716 in blood were determined. Non‐compartmental pharmacokinetic analysis (NCA) was carried out using Phoenix WinNonLin 6.3 (Certara L.P.). Free drug was measured in Z α1‐antitrypsin transgenic mice by dialysing tissue samples in rapid equilibrium dialysis cassettes.

Data set [2] addresses L-type Ca channel (CaV1.2) (Homo sapiens, UniProt Q13936). The data set can be described thus: in vitro. Format: cell-based. Here is the method:
as §1

For another data set, the target named is Adrenergic α1B (Homo sapiens, UniProt P35368). The data set is described as follows: Off‐target panel: Adrenergic α1B. Format: cell-based. Here is the method:
as §1

A further data set concerns the target Cannabinoid CB2 (Homo sapiens, UniProt P34972). The data set is described as follows: Off‐target panel: Cannabinoid CB2. Format: cell-based. Here is the method:
as §1

For a further data set, the target named is LCK (Homo sapiens, UniProt P06239). The data set can be described thus: Off‐target panel: LCK. Format: biochemical. The conditions noted are these: Inhibition, read-out: Mean (PXC50). Here is the method: as §1
Data set [3] has as its system CHO inducible cells expressing wild‐type M α1‐antitrypsin. The data set can be described thus: Tunicamycin sensitivity, cell viability (Cell Counting Kit‐8), cells expressing M α1‐antitrypsin. As to conditions: 10 μM GSK716, cells expressing M α1‐antitrypsin, tunicamycin 36 h. The format is cell-based. Here is the method: Figure 2 GSK716 inhibits polymerisation of Z α1‐antitrypsin in cell models of disease • A GSK716 was added to CHO‐TET‐ON‐Z‐A1AT cells (Ordóñez et al, 2013) with simultaneous induction of Z α1‐antitrypsin expression using doxycycline, and polymer load was quantified with the 2C1 monoclonal antibody that is specific to pathological polymers of α1‐antitrypsin (Miranda et al, 2010). […] Data were normalised to vehicle and a control compound from the GSK716 series at saturating concentration. […] It induced an approximately threefold increase in secreted levels of Z α1‐antitrypsin compared with vehicle control. This was apparent even after polymers had been allowed to form. Scale bar: 100 µm. Data presented as mean ± SD, n = 8 (secretion) and n = 6 (polymer inhibition). • E CHO tetracycline‐inducible cells expressing Z α1‐antitrypsin were induced with 0.5 μg/ml doxycycline for 48 h and treated with 10 μM GSK716. […] For every time point, NP‐40‐soluble and NP‐40‐insoluble fractions were separated and immunoprecipitated with the 2C1 mAb and resolved by 4–12% w/v SDS–PAGE and α1‐antitrypsin detected by immunoblotting. […] Cell viability was measured by Cell Counting Kit‐8. […] Samples were resolved by 4–12% w/v acrylamide SDS–PAGE and detected by autoradiography. • H The graphs show the effect of GSK716 on intracellular and extracellular Z α1‐antitrypsin (mean ± SEM, n = 2). […]
In general terms: Tetrazolium assays rely on reduction of a dye to a coloured formazan, in cell work by metabolically active cells.

L-type Ca channel (CaV1.2), sequence (Q13936 whole entry): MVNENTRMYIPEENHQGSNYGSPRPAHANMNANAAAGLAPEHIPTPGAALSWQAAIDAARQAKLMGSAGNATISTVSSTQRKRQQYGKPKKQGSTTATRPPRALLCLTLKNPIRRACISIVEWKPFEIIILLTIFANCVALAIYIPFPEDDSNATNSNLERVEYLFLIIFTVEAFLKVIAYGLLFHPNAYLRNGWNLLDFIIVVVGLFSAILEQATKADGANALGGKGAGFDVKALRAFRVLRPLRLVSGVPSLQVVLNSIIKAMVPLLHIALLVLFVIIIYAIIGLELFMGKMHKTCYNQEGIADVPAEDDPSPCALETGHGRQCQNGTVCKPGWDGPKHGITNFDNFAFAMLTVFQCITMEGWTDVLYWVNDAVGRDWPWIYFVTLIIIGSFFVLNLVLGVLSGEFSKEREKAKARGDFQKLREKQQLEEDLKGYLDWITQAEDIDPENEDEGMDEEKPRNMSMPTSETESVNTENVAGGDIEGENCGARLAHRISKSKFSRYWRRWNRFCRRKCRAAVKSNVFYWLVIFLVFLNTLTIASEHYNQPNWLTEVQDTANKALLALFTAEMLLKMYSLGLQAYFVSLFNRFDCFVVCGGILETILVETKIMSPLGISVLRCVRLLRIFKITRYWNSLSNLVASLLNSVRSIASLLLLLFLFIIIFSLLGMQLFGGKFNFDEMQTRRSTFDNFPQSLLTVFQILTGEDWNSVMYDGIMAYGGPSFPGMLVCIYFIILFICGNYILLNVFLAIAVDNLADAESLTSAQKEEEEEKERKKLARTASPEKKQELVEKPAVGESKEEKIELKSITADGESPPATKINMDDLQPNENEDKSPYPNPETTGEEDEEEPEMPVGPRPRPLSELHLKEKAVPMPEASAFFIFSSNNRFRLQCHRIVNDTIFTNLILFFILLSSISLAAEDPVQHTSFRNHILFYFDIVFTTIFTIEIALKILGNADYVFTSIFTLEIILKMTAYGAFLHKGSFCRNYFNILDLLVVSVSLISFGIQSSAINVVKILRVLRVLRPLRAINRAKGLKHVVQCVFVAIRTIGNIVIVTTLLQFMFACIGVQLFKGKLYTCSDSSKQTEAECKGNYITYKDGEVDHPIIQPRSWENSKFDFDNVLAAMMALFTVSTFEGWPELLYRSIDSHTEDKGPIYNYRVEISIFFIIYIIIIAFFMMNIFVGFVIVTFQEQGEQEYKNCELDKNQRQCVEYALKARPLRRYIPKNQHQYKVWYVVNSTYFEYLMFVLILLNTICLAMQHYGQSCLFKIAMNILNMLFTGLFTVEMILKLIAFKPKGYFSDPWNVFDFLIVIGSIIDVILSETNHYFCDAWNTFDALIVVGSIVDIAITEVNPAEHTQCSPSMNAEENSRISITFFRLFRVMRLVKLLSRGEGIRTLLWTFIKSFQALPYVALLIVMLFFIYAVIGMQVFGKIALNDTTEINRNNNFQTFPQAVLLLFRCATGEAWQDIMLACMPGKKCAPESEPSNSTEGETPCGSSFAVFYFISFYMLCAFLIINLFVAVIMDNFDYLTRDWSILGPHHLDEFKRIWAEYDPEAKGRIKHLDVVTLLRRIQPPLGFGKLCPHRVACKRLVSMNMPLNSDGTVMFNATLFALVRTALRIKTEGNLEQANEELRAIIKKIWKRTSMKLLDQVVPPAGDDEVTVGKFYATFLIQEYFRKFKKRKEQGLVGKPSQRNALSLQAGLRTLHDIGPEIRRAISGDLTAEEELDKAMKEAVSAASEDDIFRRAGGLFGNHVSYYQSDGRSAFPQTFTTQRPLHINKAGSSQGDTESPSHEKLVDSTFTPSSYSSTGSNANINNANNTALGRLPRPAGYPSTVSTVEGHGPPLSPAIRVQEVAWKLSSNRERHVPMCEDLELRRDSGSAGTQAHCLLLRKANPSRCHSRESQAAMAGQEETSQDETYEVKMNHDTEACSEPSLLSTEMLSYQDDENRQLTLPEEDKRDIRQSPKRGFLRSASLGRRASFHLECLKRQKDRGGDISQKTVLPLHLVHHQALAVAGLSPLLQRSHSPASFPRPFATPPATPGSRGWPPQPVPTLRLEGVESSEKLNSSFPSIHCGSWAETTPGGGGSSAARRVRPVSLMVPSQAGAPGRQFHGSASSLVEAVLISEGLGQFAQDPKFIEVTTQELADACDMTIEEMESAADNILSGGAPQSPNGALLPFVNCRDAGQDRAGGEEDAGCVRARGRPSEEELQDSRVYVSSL
L-type Ca channel (CaV1.2), sequence (Q08289 whole entry partner): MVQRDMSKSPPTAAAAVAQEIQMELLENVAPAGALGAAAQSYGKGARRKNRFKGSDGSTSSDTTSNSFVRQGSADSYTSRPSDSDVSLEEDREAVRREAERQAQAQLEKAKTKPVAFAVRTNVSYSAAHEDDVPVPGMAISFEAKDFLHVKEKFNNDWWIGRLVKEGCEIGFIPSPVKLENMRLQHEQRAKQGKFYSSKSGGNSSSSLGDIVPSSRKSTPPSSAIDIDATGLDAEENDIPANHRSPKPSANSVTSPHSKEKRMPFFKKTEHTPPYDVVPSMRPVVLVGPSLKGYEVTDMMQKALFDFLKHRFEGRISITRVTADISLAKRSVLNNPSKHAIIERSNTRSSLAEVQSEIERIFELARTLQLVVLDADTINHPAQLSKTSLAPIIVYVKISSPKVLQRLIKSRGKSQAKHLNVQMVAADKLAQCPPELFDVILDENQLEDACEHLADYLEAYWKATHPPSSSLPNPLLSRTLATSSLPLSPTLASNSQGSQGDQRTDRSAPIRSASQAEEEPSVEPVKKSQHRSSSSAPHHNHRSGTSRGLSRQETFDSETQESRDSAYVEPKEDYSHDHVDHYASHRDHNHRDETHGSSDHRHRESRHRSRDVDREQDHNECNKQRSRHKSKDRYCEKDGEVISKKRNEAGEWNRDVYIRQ
L-type Ca channel (CaV1.2), sequence (P54289 25-946 partner limits assumed): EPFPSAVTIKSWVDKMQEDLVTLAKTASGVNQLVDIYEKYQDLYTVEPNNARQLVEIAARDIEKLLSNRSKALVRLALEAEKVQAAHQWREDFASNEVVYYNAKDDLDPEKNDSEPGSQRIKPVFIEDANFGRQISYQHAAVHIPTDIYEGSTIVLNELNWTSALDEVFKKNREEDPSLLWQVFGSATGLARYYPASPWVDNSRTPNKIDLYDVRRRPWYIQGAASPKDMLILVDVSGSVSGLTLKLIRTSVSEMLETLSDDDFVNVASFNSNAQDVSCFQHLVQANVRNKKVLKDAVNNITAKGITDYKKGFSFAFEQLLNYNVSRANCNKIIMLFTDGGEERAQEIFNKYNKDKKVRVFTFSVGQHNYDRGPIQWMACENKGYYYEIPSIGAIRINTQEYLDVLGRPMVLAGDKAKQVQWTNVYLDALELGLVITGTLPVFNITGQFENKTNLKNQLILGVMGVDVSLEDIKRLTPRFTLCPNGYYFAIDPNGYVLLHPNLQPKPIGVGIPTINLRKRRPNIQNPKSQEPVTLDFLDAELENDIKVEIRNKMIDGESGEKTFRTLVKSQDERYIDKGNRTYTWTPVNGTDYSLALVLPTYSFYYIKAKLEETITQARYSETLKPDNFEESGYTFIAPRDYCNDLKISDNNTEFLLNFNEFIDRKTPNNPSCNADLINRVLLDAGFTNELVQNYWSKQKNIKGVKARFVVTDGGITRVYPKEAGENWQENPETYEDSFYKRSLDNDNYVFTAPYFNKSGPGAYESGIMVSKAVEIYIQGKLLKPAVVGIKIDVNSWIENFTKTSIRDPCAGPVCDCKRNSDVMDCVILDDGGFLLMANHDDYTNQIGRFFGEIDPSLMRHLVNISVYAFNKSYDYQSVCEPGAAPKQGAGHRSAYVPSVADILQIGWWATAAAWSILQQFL
L-type Ca channel (CaV1.2), sequence (P54289 947-1103 partner limits assumed): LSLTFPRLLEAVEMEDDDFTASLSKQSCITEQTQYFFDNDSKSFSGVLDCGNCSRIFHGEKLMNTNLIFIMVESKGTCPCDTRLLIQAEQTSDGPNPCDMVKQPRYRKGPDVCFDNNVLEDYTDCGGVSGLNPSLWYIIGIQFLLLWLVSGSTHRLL
Cannabinoid CB2, sequence (P34972 whole entry): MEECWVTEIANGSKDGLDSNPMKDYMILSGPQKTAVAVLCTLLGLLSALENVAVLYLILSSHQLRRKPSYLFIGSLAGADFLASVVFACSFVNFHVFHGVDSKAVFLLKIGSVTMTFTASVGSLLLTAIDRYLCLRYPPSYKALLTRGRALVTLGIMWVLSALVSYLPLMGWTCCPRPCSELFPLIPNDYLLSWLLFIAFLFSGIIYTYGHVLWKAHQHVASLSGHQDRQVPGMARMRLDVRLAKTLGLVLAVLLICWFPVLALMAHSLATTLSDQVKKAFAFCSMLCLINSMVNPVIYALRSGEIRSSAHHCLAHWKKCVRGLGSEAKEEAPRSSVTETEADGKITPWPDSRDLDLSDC
Adrenergic α1B, sequence (P35368 whole entry): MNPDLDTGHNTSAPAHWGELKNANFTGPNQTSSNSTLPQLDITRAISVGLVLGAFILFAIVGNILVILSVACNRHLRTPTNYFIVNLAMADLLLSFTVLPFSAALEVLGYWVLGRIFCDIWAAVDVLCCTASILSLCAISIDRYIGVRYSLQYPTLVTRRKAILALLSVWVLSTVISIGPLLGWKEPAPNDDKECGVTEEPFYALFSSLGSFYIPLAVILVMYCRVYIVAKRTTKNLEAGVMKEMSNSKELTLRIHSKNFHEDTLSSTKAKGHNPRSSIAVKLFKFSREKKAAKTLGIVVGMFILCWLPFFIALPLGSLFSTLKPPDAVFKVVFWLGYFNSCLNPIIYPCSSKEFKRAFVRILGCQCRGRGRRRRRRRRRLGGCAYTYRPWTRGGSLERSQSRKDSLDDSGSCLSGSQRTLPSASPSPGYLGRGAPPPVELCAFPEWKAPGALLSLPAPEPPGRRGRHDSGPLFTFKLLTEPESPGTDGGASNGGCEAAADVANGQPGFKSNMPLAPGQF

Regarding `CCC[C@@H](NC(=O)c1cccc2c1CC(=O)N2)[C@@H](O)c1cccc(F)c1C` [GSK716], the pEC50 at Serotonin 5HT3 was under 4.30; on Cannabinoid CB2, under 4.00. In addition, the pIC50 against Serotonin 5HT3 was 4.50; in data set [2] it was over 5.67; on Adrenergic α1B, under 4.60; at LCK, under 4.50. Moreover, the bioavailability in data set [1] stood at 71%. Further, the “survival with tunicamycin (cell viability)” value in data set [3] is on record as “no effect”.

As usually defined, the pEC50 is the EC50 on a negative log10 scale, so that one unit is a factor of ten. High values mean a small EC50, low ones a large EC50. What is called bioavailability is dose-corrected exposure relative to a reference, in per cent.
